Experimental data taken from PubChem BioAssay AID1963830 (Molecular Pharmacology Branch, DTP, NCI, 2024).
pIC50: −log10 of the molar value.

Tested on: 922993-354-T-J3-PDC complex spheroid viability
Experiment: Anticancer human tumor 922993-354-T-J3-PDC patient-derived endometrial carcinoma cell line growth inhibition [POLQ]
Conditions: for pIC50: curve of first compound; for viability, T/C: stronger effect = lower value; active = viability on the fitted dose curve at most 10% of control; inactive = the rest
In short: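 Three-cell-type spheroids modelling solid tumor plus stroma served as the readout system; POL inhibitors were tested individually and in combination, concentration ranges set by clinical Cmax where known.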
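Note: spheroids exposed to the agents for one week.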
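Throughout, for viability, T/C: 100% = DMSO vehicle control wells.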

CC1COCCN1c1cc(C2(S(C)(=N)=O)CC2)nc(-c2ccnc3[nH]ccc23)n1 (configuration not stated) + Cc1cccc(N(C)C(=O)C2C(O)CCN2c2nc(C)cc(C(F)(F)F)c2C#N)c1
inactive: viability, T/C (second compound 0.0316 µM, first compound 0.0316 µM) 99.8% | viability, T/C (second compound 0.0316 µM, first compound 0.1 µM) 95.3% | viability, T/C (second compound 0.0316 µM, first compound 0.316 µM) 95% | viability, T/C (second compound 0.0316 µM, first compound 1 µM) 105% | viability, T/C (second compound 0.0316 µM, first compound 3.16 µM) 93.3% | viability, T/C (second compound 0.0316 µM, first compound 10 µM) 53% | viability, T/C (second compound 0.1 µM, first compound 0.0316 µM) 112% | viability, T/C (second compound 0.1 µM, first compound 0.1 µM) 95.4% | viability, T/C (second compound 0.1 µM, first compound 0.316 µM) 97.1% | viability, T/C (second compound 0.1 µM, first compound 1 µM) 99.7% | viability, T/C (second compound 0.1 µM, first compound 3.16 µM) 82.6% | viability, T/C (second compound 0.1 µM, first compound 10 µM) 62.9% | viability, T/C (second compound 0.316 µM, first compound 0.0316 µM) 102% | viability, T/C (second compound 0.316 µM, first compound 0.1 µM) 100% | viability, T/C (second compound 0.316 µM, first compound 0.316 µM) 104% | viability, T/C (second compound 0.316 µM, first compound 1 µM) 101% | viability, T/C (second compound 0.316 µM, first compound 3.16 µM) 77.5% | viability, T/C (second compound 0.316 µM, first compound 10 µM) 56.8% | viability, T/C (second compound 1 µM, first compound 0.0316 µM) 96.5% | viability, T/C (second compound 1 µM, first compound 0.1 µM) 105% | viability, T/C (second compound 1 µM, first compound 0.316 µM) 99.3% | viability, T/C (second compound 1 µM, first compound 1 µM) 88.9% | viability, T/C (second compound 1 µM, first compound 3.16 µM) 86.9% | viability, T/C (second compound 1 µM, first compound 10 µM) 56% | viability, T/C (second compound 3.16 µM, first compound 0.0316 µM) 101% | viability, T/C (second compound 3.16 µM, first compound 0.1 µM) 96.8% | viability, T/C (second compound 3.16 µM, first compound 0.316 µM) 103% | viability, T/C (second compound 3.16 µM, first compound 1 µM) 93.1% | viability, T/C (second compound 3.16 µM, first compound 3.16 µM) 85.7% | viability, T/C (second compound 3.16 µM, first compound 10 µM) 42.1% | viability, T/C (second compound 10 µM, first compound 0.0316 µM) 98.5% | viability, T/C (second compound 10 µM, first compound 0.1 µM) 94% | viability, T/C (second compound 10 µM, first compound 0.316 µM) 96.8% | viability, T/C (second compound 10 µM, first compound 1 µM) 91.5% | viability, T/C (second compound 10 µM, first compound 3.16 µM) 71.4% | viability, T/C (second compound 10 µM, first compound 10 µM) 14.7%
< 5.00: pIC50 (second compound 0.0316 µM) | pIC50 (second compound 0.1 µM) | pIC50 (second compound 0.316 µM) | pIC50 (second compound 1 µM)
5.31: pIC50 (second compound 10 µM)
5.09: pIC50 (second compound 3.16 µM)
